Starred links: 1 amine or outer side, 2 acyl side, 3 side chain; linkers in the order of their positions; H or OH if unused. Positions of bridges follow the written chain, without caps; N, C: chain ends. Residues, ends and D or L forms follow the SMILES beside them. *: point of attachment. C20 diacid = O=C(O)CCCCCCCCCCCCCCCCCCC(=O)*; γGlu = O=C(O)[C@H](CCC(=O)[*:2])N[*:1]
Experiment: Assay (III) ThT fibrillation assay for physical stability
Assay type: physicochemical
Conditions: for Th T pH 4.0 lag time (h): 37° C., orbital shaking 960 rpm; for ThT pH 4.0 lag time: Table 9
Description: Low physical stability of a polypeptide may lead to amyloid fibril formation, which is observed as well-ordered, thread-like macromolecular structures in the sample eventually resulting in gel formation. This has traditionally been measured by visual inspection of the sample. However, that kind of measurement is very subjective and depending on the observer. Therefore, the application of a small molecule indicator probe is much more advantageous. Thioflavin T (ThT) is such a probe and has a distinct fluorescence signature when binding to fibrils [Naiki et al. (1989) Anal. Biochem. 177, 244-249; LeVine (1999) Methods. Enzymol. […], 274-284].
The time course for fibril formation can be described by a sigmoidal curve with the following expression [Nielsen et al. (2001) Biochemistry 40, 6036-6046]:
[formula] Here, F is the ThT fluorescence at the time t. The constant t0 is the time needed to reach 50% of maximum fluorescence. The two important parameters describing fibril formation are the lag-time calculated by t0−2T and the apparent rate constant kapp=1/τ.
Few of those intermediates nucleate to form a template onto which further intermediates may assembly and the fibrillation proceeds. The lag-time corresponds to the interval in which the critical mass of nucleus is built up and the apparent rate constant is the rate with which the fibril itself is formed.
Samples were prepared freshly before each assay. Each sample composition is described in each example. The pH of the sample was adjusted to the desired value using appropriate amounts of concentrated NaOH and HClO4 or HCl. Thioflavin T was added to the samples from a stock solution in H2O to a final concentration of 1 μM.
Sample aliquots of 200 μl were placed in a 96 well microtiter plate (Packard OptiPlate™-96, white polystyrene). Usually, four or eight replica of each sample (corresponding to one test condition) were placed in one column of wells. The plate was sealed with Scotch Pad (Qiagen).
Incubation at given temperature, shaking and measurement of the ThT fluorescence emission were done in a Fluoroskan Ascent FL fluorescence platereader or Varioskan platereader (Thermo Labsystems). The temperature was adjusted to 37° C. The orbital shaking was adjusted to 960 rpm with an amplitude of 1 mm in all the presented data. Fluorescence measurement was done using excitation through a 444 nm filter and measurement of emission through a 485 nm filter.
Each run was initiated by incubating the plate at the assay temperature for 10 min. The plate was measured every 20 minutes for a desired period of time. Between each measurement, the plate was shaken and heated as described.
The measurement points were saved in Microsoft Excel format for further processing and curve drawing and fitting was performed using GraphPad Prism. The background emission from ThT in the absence of fibrils was negligible. The data points are typically a mean of four or eight samples and shown with standard deviation error bars. Only data obtained in the same experiment (i.e. samples on the same plate) are presented in the same graph ensuring a relative measure of fibrillation […].
The data set may be fitted to Eq. (1). However, since full sigmodial curves in this case are not always achieved during the measurement time, the degree of fibrillation is expressed as ThT fluorescence tabulated as the mean of the samples and shown with the standard deviation at various time points.
The polypeptide concentration in each of the tested formulations were measured both before application in the ThT fibrillation assay (“Initial”) and after completion of the ThT fibrillation (“After ThT assay”). Concentrations were determined by reverse HPLC methods using a pramlintide standard as a reference. Before measurement after completion 150 μl was collected from each of the replica and transferred to an Eppendorf tube. These were centrifuged at 30000 G for 40 mins. […]

CC[C@H](C)[C@H](NC(=O)[C@@H]1CCCN1C(=O)CNC(=O)[C@H](Cc1ccccc1)NC(=O)[C@H](CC(N)=O)NC(=O)[C@H](CCC(N)=O)NC(=O)[C@H](CO)NC(=O)[C@H](CO)NC(=O)[C@H](Cc1c[nH]cn1)NC(=O)[C@H](Cc1c[nH]cn1)NC(=O)[C@H](CC(C)C)NC(=O)[C@H](Cc1ccccc1)NC(=O)[C@H](CCC(=O)O)NC(=O)[C@H](C)NC(=O)[C@H](CC(C)C)NC(=O)[C@H](CCCNC(=N)N)NC(=O)[C@H](CCC(N)=O)NC(=O)[C@@H](NC(=O)[C@H](C)NC(=O)[C@@H]1CSSC[C@H](NC(=O)[C@H](CCCCN)NC(=O)CC[C@H](NC(=O)CCCCCCCCCCCCCCCCCCC(=O)O)C(=O)O)C(=O)N[C@@H](CC(N)=O)C(=O)N[C@@H]([C@@H](C)O)C(=O)N[C@@H](C)C(=O)N[C@@H]([C@@H](C)O)C(=O)N1)[C@@H](C)O)C(=O)N[C@@H](CC(C)C)C(=O)N1CCC[C@H]1C(=O)N1CCC[C@H]1C(=O)N[C@H](C(=O)N[C@@H](CC(N)=O)C(=O)N[C@H](C(=O)NCC(=O)N[C@@H](CO)C(=O)N[C@@H](CC(N)=O)C(=O)N[C@H](C(=O)N1CCC[C@H]1C(N)=O)[C@@H](C)O)C(C)C)[C@@H](C)O [Example 130, N-alpha-[(S)-4-Carboxy-4-(19-carboxynonadecanoylamino)butyryl]-[Glu14, His17, Gln21, Pro37]-pramlintide] ({C20 diacid-γGlu}-KCNTATCATQRLAEFLHHSSQNFGPILPPTNVGSNTP-NH2; disulfide 2-7 (inferred); C-terminus assumed)
Th T pH 4.0 lag time (h): >45 h
ThT pH 4.0 lag time: >45 hr

CC[C@H](C)[C@H](NC(=O)[C@@H]1CCCN1C(=O)CNC(=O)[C@H](Cc1ccccc1)NC(=O)[C@H](CC(N)=O)NC(=O)[C@H](CC(N)=O)NC(=O)[C@H](CO)NC(=O)[C@H](CO)NC(=O)[C@H](Cc1c[nH]cn1)NC(=O)[C@H](Cc1c[nH]cn1)NC(=O)[C@H](CC(C)C)NC(=O)[C@H](Cc1ccccc1)NC(=O)[C@H](CCC(=O)O)NC(=O)[C@H](C)NC(=O)[C@H](CC(C)C)NC(=O)[C@H](CCCNC(=N)N)NC(=O)[C@H](CCC(N)=O)NC(=O)[C@@H](NC(=O)[C@H](C)NC(=O)[C@@H]1CSSC[C@H](NC(=O)[C@H](CCCCN)NC(=O)CC[C@H](NC(=O)CCCCCCCCCCCCCCCCCCC(=O)O)C(=O)O)C(=O)N[C@@H](CC(N)=O)C(=O)N[C@@H]([C@@H](C)O)C(=O)N[C@@H](C)C(=O)N[C@@H]([C@@H](C)O)C(=O)N1)[C@@H](C)O)C(=O)N[C@@H](CC(C)C)C(=O)N1CCC[C@H]1C(=O)N1CCC[C@H]1C(=O)N[C@H](C(=O)N[C@@H](CC(N)=O)C(=O)N[C@H](C(=O)NCC(=O)N[C@@H](CO)C(=O)N[C@@H](CCC(N)=O)C(=O)N[C@H](C(=O)N1CCC[C@H]1C(N)=O)[C@@H](C)O)C(C)C)[C@@H](C)O [Example 135, N-alpha-[(S)-4-Carboxy-4-(19-carboxynonadecanoylamino)butyryl]-[Glu14, His17, Gln35, Pro37]-pramlintide] ({C20 diacid-γGlu}-KCNTATCATQRLAEFLHHSSNNFGPILPPTNVGSQTP-NH2; disulfide 2-7)
Th T pH 4.0 lag time (h): >45 h
ThT pH 4.0 lag time: >45 hr

CC[C@H](C)[C@H](NC(=O)[C@@H]1CCCN1C(=O)CNC(=O)[C@H](Cc1ccccc1)NC(=O)[C@H](CC(N)=O)NC(=O)[C@H](CCC(N)=O)NC(=O)[C@H](CO)NC(=O)[C@H](CO)NC(=O)[C@H](Cc1c[nH]cn1)NC(=O)[C@H](Cc1c[nH]cn1)NC(=O)[C@H](CC(C)C)NC(=O)[C@H](Cc1ccccc1)NC(=O)[C@H](CCC(=O)O)NC(=O)[C@H](C)NC(=O)[C@H](CC(C)C)NC(=O)[C@H](CCCNC(=N)N)NC(=O)[C@H](CCC(N)=O)NC(=O)[C@@H](NC(=O)[C@H](C)NC(=O)[C@@H]1CSSC[C@H](NC(=O)[C@H](CCCCN)NC(=O)CC[C@H](NC(=O)CCCCCCCCCCCCCCCCCCC(=O)O)C(=O)O)C(=O)N[C@@H](CC(N)=O)C(=O)N[C@@H]([C@@H](C)O)C(=O)N[C@@H](C)C(=O)N[C@@H]([C@@H](C)O)C(=O)N1)[C@@H](C)O)C(=O)N[C@@H](CC(C)C)C(=O)N1CCC[C@H]1C(=O)N1CCC[C@H]1C(=O)N[C@H](C(=O)N[C@@H](CC(N)=O)C(=O)N[C@H](C(=O)NCC(=O)N[C@@H](CO)C(=O)N[C@@H](CCC(N)=O)C(=O)N[C@H](C(=O)N1CCC[C@H]1C(N)=O)[C@@H](C)O)C(C)C)[C@@H](C)O [Example 136, N-alpha-[(S)-4-Carboxy-4-(19-carboxynonadecanoylamino)butyryl]-[Glu14, His17, Gln21, Gln35, Pro37]-pramlintide] ({C20 diacid-γGlu}-KCNTATCATQRLAEFLHHSSQNFGPILPPTNVGSQTP-NH2; disulfide 2-7)
Th T pH 4.0 lag time (h): >45 h
ThT pH 4.0 lag time: >45 hr

CC[C@H](C)[C@H](NC(=O)[C@@H]1CCCN1C(=O)CNC(=O)[C@H](Cc1ccccc1)NC(=O)[C@H](CC(N)=O)NC(=O)[C@H](CCC(N)=O)NC(=O)[C@H](CO)NC(=O)[C@H](CO)NC(=O)[C@H](Cc1c[nH]cn1)NC(=O)[C@H](Cc1c[nH]cn1)NC(=O)[C@H](CC(C)C)NC(=O)[C@H](Cc1ccccc1)NC(=O)[C@H](CCC(=O)O)NC(=O)[C@H](C)NC(=O)[C@H](CC(C)C)NC(=O)[C@H](CCCNC(=N)N)NC(=O)[C@H](CCC(N)=O)NC(=O)[C@@H](NC(=O)[C@H](C)NC(=O)[C@@H]1CSSC[C@H](NC(=O)CNC(=O)CC[C@H](NC(=O)CCCCCCCCCCCCCCCCCCC(=O)O)C(=O)O)C(=O)N[C@@H](CC(N)=O)C(=O)N[C@@H]([C@@H](C)O)C(=O)N[C@@H](C)C(=O)N[C@@H]([C@@H](C)O)C(=O)N1)[C@@H](C)O)C(=O)N[C@@H](CC(C)C)C(=O)N1CCC[C@H]1C(=O)N1CCC[C@H]1C(=O)N[C@H](C(=O)N[C@@H](CC(N)=O)C(=O)N[C@H](C(=O)NCC(=O)N[C@@H](CO)C(=O)N[C@@H](CCC(N)=O)C(=O)N[C@H](C(=O)N1CCC[C@H]1C(N)=O)[C@@H](C)O)C(C)C)[C@@H](C)O [Example 137, N-alpha-[(S)-4-Carboxy-4-(19-carboxynonadecanoylamino)butyryl]-[Gly1, Glu14, His17, Gln21, Gln35, Pro37]-pramlintide] ({C20 diacid-γGlu}-GCNTATCATQRLAEFLHHSSQNFGPILPPTNVGSQTP-NH2; disulfide 2-7)
Th T pH 4.0 lag time (h): 29 h

CC[C@H](C)[C@H](NC(=O)[C@@H]1CCCN1C(=O)CNC(=O)[C@H](Cc1ccccc1)NC(=O)[C@H](CC(N)=O)NC(=O)[C@H](CC(N)=O)NC(=O)[C@H](CO)NC(=O)[C@H](CO)NC(=O)[C@H](Cc1c[nH]cn1)NC(=O)[C@H](Cc1c[nH]cn1)NC(=O)[C@H](CC(C)C)NC(=O)[C@H](Cc1ccccc1)NC(=O)[C@H](CCC(=O)O)NC(=O)[C@H](C)NC(=O)[C@H](CC(C)C)NC(=O)[C@H](CCCCN)NC(=O)[C@H](CCC(N)=O)NC(=O)[C@@H](NC(=O)[C@H](C)NC(=O)[C@@H]1CSSC[C@H](NC(=O)[C@H](CCCCN)NC(=O)CC[C@H](NC(=O)CCCCCCCCCCCCCCCCCCC(=O)O)C(=O)O)C(=O)N[C@@H](CC(N)=O)C(=O)N[C@@H]([C@@H](C)O)C(=O)N[C@@H](C)C(=O)N[C@@H]([C@@H](C)O)C(=O)N1)[C@@H](C)O)C(=O)N[C@@H](CC(C)C)C(=O)N1CCC[C@H]1C(=O)N1CCC[C@H]1C(=O)N[C@H](C(=O)N[C@@H](CC(N)=O)C(=O)N[C@H](C(=O)NCC(=O)N[C@@H](CO)C(=O)N[C@@H](CC(N)=O)C(=O)N[C@H](C(=O)N1CCC[C@H]1C(N)=O)[C@@H](C)O)C(C)C)[C@@H](C)O [Example 145, N-alpha-[(S)-4-Carboxy-4-(19-carboxynonadecanoylamino)butyryl]-[Lys11, Glu14, His17, Pro37]-pramlintide] ({C20 diacid-γGlu}-KCNTATCATQKLAEFLHHSSNNFGPILPPTNVGSNTP-NH2; disulfide 2-7)
Th T pH 4.0 lag time (h): >45 h
ThT pH 4.0 lag time: >45 hr

Reference: US9029325B2, “Amylin analogues and pharmaceutical compositions thereof” (Novo Nordisk A/S, priority 2011, dated 2015)
